For experiment [1], the target named is T1, human CRHR2 (Homo sapiens, UniProt Q13324).
T1 construct: expressed in transfected cells
T1 sequence (Q13324 1-411): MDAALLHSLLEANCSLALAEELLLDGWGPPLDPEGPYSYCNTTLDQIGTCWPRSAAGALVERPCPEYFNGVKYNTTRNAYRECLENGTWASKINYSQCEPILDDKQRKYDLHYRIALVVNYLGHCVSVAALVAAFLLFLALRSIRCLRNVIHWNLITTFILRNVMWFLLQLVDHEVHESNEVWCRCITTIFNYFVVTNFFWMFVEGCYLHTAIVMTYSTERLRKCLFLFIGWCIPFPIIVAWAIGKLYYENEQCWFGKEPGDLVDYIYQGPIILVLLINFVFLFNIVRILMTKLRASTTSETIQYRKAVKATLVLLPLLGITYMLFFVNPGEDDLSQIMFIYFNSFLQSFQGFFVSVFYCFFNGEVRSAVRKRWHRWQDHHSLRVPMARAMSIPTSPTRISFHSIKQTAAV
In words: cAMP assay in h-CRHR2 transfected SK-N-MC cells. It counts as cell-based. The essentials:
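SK-N-MC cells stably expressing human CRHR2 were stimulated with peptides (1 pM-10 μM) for 60 min at 37 °C with 10 μM IBMX, then lysed in 0.5 M HCl. cAMP was quantified by competitive [125I]-cAMP antibody flash-plate assay. Hill-equation fits gave A50/pA50; Log DR was taken relative to h-SCP control in the same batch.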

A further experiment deals with T2, CRHR1 (Homo sapiens, UniProt P34998).
T2 sequence (P34998 24-415): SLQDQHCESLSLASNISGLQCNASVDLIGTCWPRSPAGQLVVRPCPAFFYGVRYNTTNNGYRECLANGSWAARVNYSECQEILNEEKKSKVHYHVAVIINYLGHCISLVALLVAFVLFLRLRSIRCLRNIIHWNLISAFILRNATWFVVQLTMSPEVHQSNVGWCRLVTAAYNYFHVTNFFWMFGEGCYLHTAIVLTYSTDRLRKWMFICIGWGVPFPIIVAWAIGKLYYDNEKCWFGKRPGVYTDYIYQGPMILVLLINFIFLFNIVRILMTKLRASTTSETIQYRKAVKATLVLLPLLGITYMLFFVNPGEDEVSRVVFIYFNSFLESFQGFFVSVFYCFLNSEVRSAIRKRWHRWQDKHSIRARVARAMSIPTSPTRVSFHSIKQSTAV
In words: Radioligand binding CRHR1 assay, [125I]-(Tyr0)-sauvagine. Also on record: expressed in transfected cells; host or cells: cell membranes. As to the method: The solution was then homogenized with a Polytron tissue grinder at a setting of 10 and 7×3 s (Brinkmann Instruments, Westbury, N.Y.). The homogenate was centrifuged at 4° Celsius at 800×g for 5 min with the pellet being discarded. […] All binding assays were conducted in 96-well Multiscreen GF/B filter plates (Millipore, Billericay, Mass., U.S.A.) that were pre-soaked in assay buffer with 0.3% PEI for 1 hour. […] The bound radioactivity was separated by filtration using a Multiscreen Resist manifold (Millipore Corp., Billerica, Mass., U.S.A). The filters were washed three times with ice-cold PBS at pH 7.5 and radioactivity retained on the filters was quantified by its liquid scintillation measured by a TopCount counter (Packard BioScience, Boston, Mass., U.S.A). All experiments were performed in triplicate.

Experiment [2] deals with T1, human CRHR2. Kind of experiment: Radioligand binding, membranes of SK-N-MC cells transfected with human CRHR2, [125I]-anti-sauvagine-30. The procedure:
The binding profile of h-SCP (SEQ ID NO:1) at CRHR2 was determined in radioligand binding studies in a membrane preparation of SK-N-MC cells stably transfected with human CRHR2 using [^125I]-anti-sauvagine-30 as the radiolabel. […] The solution was then homogenized with a Polytron tissue grinder at a setting of 10 and 7×3 s (Brinkmann Instruments, Westbury, N.Y.). The homogenate was centrifuged at 4° Celsius at 800×g for 5 min with the pellet being discarded. The supernatant was re-centrifuged at 26,892×g for 25 min at 4° Celsius with the final pellet being re-suspended in assay buffer. All binding assays were conducted in 96-well Multiscreen GF/B filter plates (Millipore, Billericay, Mass., U.S.A.) that were pre-soaked in assay buffer with 0.3% PEI for 1 hour. […] The bound radioactivity was separated by filtration using a Multiscreen Resist manifold (Millipore Corp., Billerica, Mass., U.S.A). The filters were washed three times with ice-cold PBS at pH 7.5 and radioactivity retained on the filters was quantified by its liquid scintillation measured by a TopCount counter (Packard BioScience, Boston, Mass., U.S.A). All experiments were performed in triplicate. Data from individual competition curves were expressed as the percentage of specific [^125I]-anti-sauvagine-30 or)[^125I]-([…])-sauvagine binding (B) within each experiment.

The mark [3] stands for this setting: Table 15, slope of competition curve.

No end group written: not given here.

By Ki is commonly meant the equilibrium dissociation constant of an inhibitor or competing ligand from its target. A lower Ki goes with tighter binding.

Molecule `CC[C@H](C)[C@H](NC(=O)[C@@H](NC(=O)[C@H](CC(=O)O)NC(=O)[C@H](CC(C)C)NC(=O)[C@H](CC(C)C)NC(=O)[C@H](CC(C)C)NC(=O)[C@H](CCCNC(=N)N)NC(=O)[C@H](CC(N)=O)NC(=O)[C@H](CC(N)=O)NC(=O)[C@H](C)NC(=O)[C@H](C)NC(=O)[C@H](CCC(N)=O)NC(=O)[C@H](CCC(N)=O)NC(=O)[C@H](CCCCN)NC(=O)[C@H](CCC(=O)O)NC(=O)[C@H](CCCCN)NC(=O)[C@H](CCC(=O)O)NC(=O)[C@H](CCC(N)=O)NC(=O)[C@H](CCCCN)NC(=O)[C@H](CCC(=O)O)NC(=O)[C@@H](NC(=O)[C@H](CCC(=O)O)NC(=O)[C@@H](NC(=O)[C@H](CCSC)NC(=O)[C@H](CCCCN)NC(=O)[C@H](CCCNC(=N)N)NC(=O)[C@H](CC(C)C)NC(=O)[C@H](CC(C)C)NC(=O)[C@H](Cc1c[nH]cn1)NC(=O)[C@H](N)Cc1ccccc1)[C@@H](C)CC)[C@@H](C)CC)[C@@H](C)O)C(N)=O` [SEQ ID NO: 118, FHLLRKMIEIEKQEKEKQQAANNRLLLDTI-NH2] gave a Kb at human CRHR2 [1] of 15.1 nM. Also, the Ki at CRHR1 is 1550 nM; on human CRHR2 [2] it was 16.6 nM. For the same molecule, the “CRHR1 nH” value at CRHR1 (setting [3]) was 1.00 ± 0.49. Also, at human CRHR2 [2] (setting [3]), the “CRHR2 nH” value is reported as 1.15 ± 0.12.
In the case of “TKFTLSLDVPTNIMNLLFNICKAKNLRAQAAANAHLMAQI-NH2 [SEQ ID NO: 22, TKFTLSLDVPTNIMNLLFNICKAKNLRAQAAANAHLMAQI-NH2]”, the “Log DR” value at human CRHR2 [1] (Table 13, h-SCP control pA50 minus test compound pA50 within same assay batch) worked out at 0.52.
“TLSLDVPTNIMNLLFNIAKAKNLRAQAAANAHLMAQI-NH2 [SEQ ID NO: 108, TLSLDVPTNIMNLLFNIAKAKNLRAQAAANAHLMAQI-NH2]” returned a nH at human CRHR2 [1] (Table 12, Hill slope) of 0.82.

For the origin of these results see US10040838B2, “CRHR2 peptide agonists and uses thereof” (JANSSEN PHARMACEUTICA NV, priority 2008, dated 2018).
